Data reported in patent publication US20250352518A1, “A BENZIMIDAZOLE COMPOUND WITH ANTIHELMINTHIC ACTIVITY FOR USE IN REVERSING, ARRESTING OR SLOWING DOWN CELLULAR AGEING IN A VERTEBRATE SUBJECT” (RAVAN BIO LIMITED, priority 2022, published 2025).

Key:
14th passage NHEK cells = experiment: Toxic effects on late-passage (passage 14) NHEK's; assay type: cell-based, human; details: 6 days, 10 μM Y27632 or 500 nM Tadalafil+100 nM Fenbendazole
Text: NHEK's were maintained in complete KSFM for 55 days with serial passage routinely carried out at 80% confluence in T75 flasks, as previously described in 1.1. These cells were not grown to be post-confluent and the cells were therefore not used to assess the ability of test compounds to reverse, arrest or slow down cellular ageing. Instead, the cells were used to assess whether or not Y27632, fenbendazole or tadalafil has any toxic effects. After the 55 days, a total of 50,000 cells/well of 14th passage NHEK cells were seeded into 6 well plates and, after 24 hours, Y27632, and a mixture of Tadalafil and Fenbendazole were added.

[1] = system: post-confluent NHEK cells; experiment: Growth of re-cultured post-confluent (cell-cell contact growth arrested) NHEK's; assay type: cell-based, human; details: for continued growth of post-confluent NHEK's (phase contrast): passage 4, 24 hours with compound, 10 μM Y27632, 500-1250 nM Tadalafil, 50-200 nM Fenbendazole; for concentration causing optimal cell growth: post-confluent NHEK
Text: Neonatal human epidermal foreskin keratinocytes (NHEKs) were used to test the ability of compounds to reverse, arrest or slow down cellular ageing. These cells typically undergo approximately 35 cell divisions before the Hayflick limit is reached but they can be induced to undergo premature senescence and, what has been understood to be, irreversible growth arrest earlier than this by induction of cell-cell contact growth inhibition when cultured at high cell density/to confluence (Poumay & Pittelkow 1995 J Inv Dermatol 104, p 271-276). The inventors were thus inspired to culture post-confluent cells and assess the effect of test compounds on the growth, telomere loss and secretion of inflammatory factors by such cells. An experimental schematic is provided as FIG. 1. 1.1 Culture of Early Passage NHEK's in the Presence and Absence of y27632 Pooled donor neonatal NHEK's (Cat No C-12005, Lot No 456Z001.1, PromoCell GmBH), serum-free PromoCell Keratinocyte Growth Medium 2 (KSFM, Cat No C20011. Lot No 472M197), CaCl2) (Lot No 471055) and Supplements (Lot No 472M013) were all obtained from PromoCell GmBH. NHEK's were thawed directly into a single T75 in 20 mls of complete KSFM (CaCl2 & Supplements), incubated over night at 37° C., 5% CO2 and the medium changed the following day. After 3 days the cells were 80% confluent and were passaged (Ist) using 0.05% Trypsin+EDTA (Gibco) into ×2 T75 flasks at a split ratio of 1:4. After overnight incubation at 37° C., 5% CO2, the cultures were at 30% confluence and 10 μM Y27632 (Cat No 688000, Lot No 2884132, Merck) was added to one of the flasks. […] Fresh T75 flasks were seeded with 5.0×10^5 cells from each in their respective medium. […] Fresh T75 flasks were seeded, as described previously, and also 1.2×10^4 NHEK cells/well were seeded into 24 well plates, incubated overnight to allow cell attachment, and the following subsequently added to separate wells: • A. NHEK in complete KSFM • B. NHEK+Y27632 in complete KSFM • C. Y27632 treated NHEK transferred to complete KSFM (Y27632 Removed) • D. NHEK transferred to complete KSFM+500 nM Tadalafil • E. NHEK transferred to complete KSFM+750 nM Tadalafil • F. NHEK transferred to complete KSFM+1000 nM Tadalafil • G. NHEK transferred to complete KSFM+1250 nM Tadalafil • H. NHEK transferred to complete KSFM+50 nM Fenbendazole • I. NHEK transferred to complete KSFM+100 nM Fenbendazole • J. NHEK transferred to complete KSFM+150 nM Fenbendazole • K. NHEK transferred to complete KSFM+200 nM Fenbendazole All drugs were added 24 hours after seeding. […] FIG. 2B is an example of the appearance of post-confluent cells.
Post-confluent NHEK's (FIG. 2B) were subsequently passaged (4th) into a fresh 24 well plate using a split ratio of 1 in 4 in 2 mls of fresh complete KSFM. These were left overnight to attach and the same compounds added (as shown in A-K of 1.1) followed by incubation for a further 24 hours and subsequently photographed.

[2] = system: neonatal human epidermal foreskin keratinocytes (NHEKs); experiment: Culture of early passage NHEK's in the presence and absence of Y27632 (live cell counts); assay type: cell-based
Text: Neonatal human epidermal foreskin keratinocytes (NHEKs) were used to test the ability of compounds to reverse, arrest or slow down cellular ageing. These cells typically undergo approximately 35 cell divisions before the Hayflick limit is reached but they can be induced to undergo premature senescence and, what has been understood to be, irreversible growth arrest earlier than this by induction of cell-cell contact growth inhibition when cultured at high cell density/to confluence (Poumay & Pittelkow 1995 J Inv Dermatol 104, p 271-276). The inventors were thus inspired to culture post-confluent cells and assess the effect of test compounds on the growth, telomere loss and secretion of inflammatory factors by such cells. […] Lot No 472M197), CaCl2) (Lot No 471055) and Supplements (Lot No 472M013) were all obtained from PromoCell GmBH. NHEK's were thawed directly into a single T75 in 20 mls of complete KSFM (CaCl2 & Supplements), incubated over night at 37° C., 5% CO2 and the medium changed the following day. […] After a further 48 hours both flasks were 60% confluent and phase contrast images were recorded (Zeiss […]). […] The inventors assessed that these cells had stopped growing due to cell-cell contact inhibition and had become post-confluent as defined herein. […]

[3] = system: post-confluent NHEK cells; experiment: Growth of re-cultured post-confluent (cell-cell contact growth arrested) NHEK's; assay type: cell-based, human
Interleukin 6 (IL-6) = experiment: IL-6 secretion by NHEK's (Human IL-6 SimpleStep ELISA); assay type: cell-based; details: post-confluent NHEKs, 4 days post-confluence, FIG. 9b; Tadalafil at 500 nM
Procedure: Aliquots of 60,000 NHEK cells were seeded into separate T25 flasks in complete KSFM and incubated at 5% CO2, 37° C. for 3 days until they reached 20% confluence. Fenbendazole and Tadalafil were then added to each of these as either single agents, or in combination, and the cells incubated for a further 3 days at 5% CO2, 37° C. until the cells reached >50% confluence. A sample of medium was then taken for analysis of IL-6 levels using a Human IL-6 SimpleStep ELISA Kit (AbCam Cat No ab178013) according to the manufacturer's instructions (FIG. 9a). Both medium and drugs were replaced, the cells incubated for a further 3 days until confluent, medium and drugs were changed and the incubation continued for 4 days post-confluence when final medium samples were taken for analysis of IL6 levels (FIG. 9b). Each data point was repeated in triplicate and OD 490 nm readings were determined with a Dynex MRX Plate reader.

SMILES | proliferation and cell death of late passage cells (14th passage NHEK cells) | continued growth of post-confluent NHEK's (phase contrast) ([1]; FIG. 3) | total live cell counts ([2]; KSFM+10 μM Y27632, 2nd passage at 80% confluence) | cell counts ([2]; KSFM+10 μM Y27632, 3rd passage, 72 hours after seeding 5.0×10^5 cells) | concentration causing optimal cell growth ([1]; cultured for a further 24 hrs, FIG. 4) | concentration causing optimal cell growth ([1]; passage 4, 24 hours, FIG. 3) [nM] | number of viable cells (Via-1 Assay) following withdrawal of drug ([3]; treatment P3-P5 only, withdrawn following passage 6, 5 days, FIG. 5) | number of viable cells (Via-1 Assay) ([3]; treatment continued for passages P3-P6, 5 days after passage 6, FIG. 5) | secretion of IL-6 compared to DMSO control (Interleukin 6 (IL-6))
C[C@@H](N)[C@H]1CC[C@H](C(=O)Nc2ccncc2)CC1 [Y27632] | no proliferation and extensive cell death | no, or minimal cell rejuvenation | 5.2×10^5 cells/ml | 5.3×10^5 cells/ml | – | – | – | – | –
CN1CC(=O)N2[C@H](c3ccc4c(c3)OCO4)c3[nH]c4ccccc4c3C[C@@H]2C1=O [Tadalafil, pyrazino[1′,2′: 1,6]pyrido[3,4-b]indole-1,4-dione, 6-(1,3-benzodioxol-5-yl)-2,3,6,7,12,12a-hexahydro-2-methyl-, (6R,12aR)] | – | all exhibited cell growth | – | – | about 1000 nM | 750 to 1000 | 1.3×10^4 cells/ml | 4.3×10^4 cells/ml | least effective
